Results taken from patent US20240148819A1, “COMPOUNDS FOR USE IN THE TREATMENT OF SINUSITIS, PNEUMONIA OR OTITIS” (PHARMA HOLDINGS AS, priority 2021, published 2024).
Values after ≈ are worked out from the molar mass of the structure shown. Values joined by “and” are separate entries in the source; they are usually repeats but may differ in a detail not shown here. Identical values can stand only once. Like-named read-outs stand apart in the source and are kept apart here.

Tests used:
[1] = system: SARS-CoV-2 Isolate England02/2020; format: cell-based
[2] = system: Respiratory Syncytial Virus (RSV); assay: TCID50 assay after 1 h incubation of virus with LTX-109 (Example 2); format: cell-based; conditions: for Percentage: decrease in RSV infectivity, compared to PBS control
Procedure: To test whether 1% LTX-109 (w/v) and 0.1% LTX-109 (w/v) have antiviral activity against RSV, 1×10^5 infectious units of RSV (40 μl) were incubated with four volumes of 1% LTX-109 or 0.1% LTX-109 dissolved in PBS (160 μl) or a PBS (Phosphate-buffered saline) control. The experiment was performed in triplicates.
After 1 hour, the incubation was stopped by adding an excess of cold media, and the formulation was physically separated from the virus through a filter to reduce cytotoxicity on the assay cells. Some cloudiness in the preparation was observed, particularly for the 1% formulation, but no precipitation. Infectious virus was quantified through a serial dilution (a series of ten-fold dilutions) on monolayers of Hep2 cells in microtitre plates (Hep2 cells are mammalian cells capable of displaying a cytopathic effect (CPE) upon viral infection). The starting solution for the serial dilution (i.e. the neat (or undiluted) solution) was obtained by re-suspending the virus that was separated via the filtration step in 1 ml of media. For each dilution of the virus in the dilution series, eight wells of the microtitre plate were tested (i.e. each dilution of virus was applied to eight separate wells, each well containing a Hep2 cell monolayer). Appropriate controls were also performed. […] The TCID50 (TCID50/ml) assay (Tissue Culture Infectious Dose 50 assay) is a type of endpoint dilution assay that is well known in the art and routinely used to quantitatively measure virus titres. TCID50/ml provides a measure of infectious units of virus/ml. “/ml” refers to/ml of the starting solution (i.e. neat/undiluted solution) mentioned above.

MDCK-II cells = conditions: 1% LTX-109 (w/v) in PBS, 1 h, after filtration, no virus; dilution up to which cytotoxicity on MDCK-II cells was seen
Procedure: (§7) A parallel test where the same procedure was carried out in the absence of virus was included to determine any residual cytotoxic effect of the formulation on the assay cells.

HeLa cells [3] = assay: Parallel test without virus for residual cytotoxicity (Example 7); format: cell-based, human; conditions: 3% LTX-109 (w/v) or 0.25% SDS, after dilution (50 μl in 5 ml), no virus
Procedure: as §7

HeLa cells [4] = conditions: 1% LTX-109 (w/v) or 0.25% SDS, after filtration, no virus, dilution showing cytotoxicity
Procedure: as §7

Aspergillus niger = Aspergillus niger - G. R. Micro collection
Procedure: (§1) Bacterial and fungal isolates used in this study were from various sources worldwide stored at GR Micro Ltd. and maintained, with minimal sub-culture, deep frozen at −70° C. as a dense suspension in a high protein matrix of undiluted horse serum.
(§2) Minimum inhibitory concentration (MIC) of LTX-109 was determined using the following microbroth dilution methods for antimicrobial susceptibility testing published by the Clinical and Laboratory Standards Institute (CLSI, formerly NCCLS): • M7-A6 Vol. 23 No. 2 Jan. 2003 Methods for Dilution Antimicrobial Susceptibility Tests for Bacteria that Grow Aerobically; Approved Standard-Sixth Edition. National Committee for Clinical Laboratory Standards. • M100-S15 Vol. 25 No 1. January 2005 Performance Standards for Antimicrobial Susceptibility Testing; Fifteenth Informational Supplement. Clinical and Laboratory Standards Institute • M11-A6 Vol. 24 No. 2 Methods for Antimicrobial Susceptibility Testing of Anaerobic Bacteria; Approved Standard-Sixth Edition. National Committee for Clinical Laboratory Standards. • M27-A2 Vol. 22 No. 15 Reference Method for Broth Dilution Antifungal Susceptibility Testing of Yeasts; Approved Standard-Second Edition. National Committee for Clinical Laboratory Standards. • M38-A Vol. 22 No. 16 Reference Method for Broth Dilution Antifungal Susceptibility Testing of Filamentous Fungi; Approved Standard. National Committee for Clinical Laboratory Standards.
(§3) MIC estimations were performed using wet plates, containing the LTX-109, prepared at GR Micro Ltd.
(§4) Yeast and filamentous fungal MIC were performed in MOPS buffered RPMI 1640 medium (MOPS buffer obtained from Sigma Aldrich Ltd., RPMI 1640 obtained from Invitrogen Ltd, Paisley, Scotland). The yeast inocula were in the range 7.5×10^2-4×10^3 CFU/mL and the filamentous fungi approximately 8×10^3-1×10^5 CFU/mL.
(§5) Following normal practice all the plates containing Mueller-Hinton broth were prepared in advance, frozen at −70° C. on the day of preparation and defrosted on the day of use. Fungal, Haemophilus and anaerobic MIC determinations were all performed in plates prepared on the same day.

Candida albicans = system: Candida albicans
Procedure: as §1, §2, §3, §4, §5

Candida krusei = Candida krusei - ATCC6258 - reference strain
Procedure: as §1, §2, §3, §4, §5

Candida tropicalis = Candida tropicalis - ATCC750 - reference strain
Procedure: as §1, §2, §3, §4, §5

Candida parapsilosis = Candida parapsilosis - ATCC90018 - reference strain
Procedure: as §1, §2, §3, §4, §5

Rhinovirus 60, 2268-CV37 = assay: TCID50 assay after 1 h incubation of virus with 3% LTX-109, stopped by dilution (Example 7); format: cell-based
Streptococcus pyogenes = Streptococcus pyogenes - macrolide (MLS) resistant clinical isolate
Procedure: as §1, §2, §3
(§6) Cation-adjusted Mueller-Hinton broth (Oxoid Ltd., Basingstoke, UK and Trek Diagnostic Systems Ltd., East Grinstead, UK) (supplemented with 5% laked horse blood for Streptococcus spp.) was used for aerobic bacteria, with an initial inoculum of approximately 10^5 colony-forming units (CFU)/mL.
as §5

Moraxella catarrhalis = system: Moraxella catarrhalis
Procedure: as §1, §2, §3, §6, §5

Streptococcus pneumoniae = system: Streptococcus pneumoniae
Procedure: as §1, §2, §3, §6, §5

For `CC(C)(C)c1cc(C(C)(C)C)c2[nH]c(C(C)(C)C)c(CC(NC(=O)C(N)CCCNC(=N)N)C(=O)NC(CCCNC(=N)N)C(=O)NCCc3ccccc3)c2c1` (stereo not shown) [LTX-109], the Log [1] was 2.28, the Percentage [1] was 99.99% and 99.995% and the Percentage ([2]; 0.1% LTX-109, 1 h) was 99.9% and 99.97%. For the same compound, the Percentage ([2]; 1% LTX-109, 1 h) was 99.9% and 99.949%, the Log ([2]; log of RSV titre after 1 h with 0.1% LTX-109) was 1.78 and the Log ([2]; log of RSV titre after 1 h with 1% LTX-109) was 2.20. The “With Filtration (cytotoxicity)” value (MDCK-II cells) was “Up to 10^−1”, the Cytotoxicity (HeLa cells [3]) was “Neat” and the Cytotoxicity (HeLa cells [4]) was “Neat”. For the same compound, the MIC (Aspergillus niger) was 8 µg/mL (≈ 10.2 µM), the MIC (Candida albicans; Candida albicans - ATCC24433 - reference strain) was 8 µg/mL (≈ 10.2 µM) and the MIC (Candida albicans; Candida albicans - ATCC90028 - reference strain) was 8 µg/mL (≈ 10.2 µM). The MIC (Candida krusei) was 4 µg/mL (≈ 5.08 µM), the MIC (Candida tropicalis) was 4 µg/mL (≈ 5.08 µM) and the MIC (Candida parapsilosis) was 16 µg/mL (≈ 20.3 µM). The Log decrease (Rhinovirus 60, 2268-CV37; Rhinovirus, 3% LTX-109 or 0.25% SDS, 1 hour, compared to PBS control) was 1.9 log, the Percentage (Rhinovirus 60, 2268-CV37; decrease in Rhinovirus infectivity, 3% LTX-109 or 0.25% SDS, 1 hour, compared to PBS control) was 98.87% and the Log (Rhinovirus 60, 2268-CV37; log of Rhinovirus titre after 1 hour with 3% LTX-109 or 0.25% SDS) was 2.3. For the same compound, the MIC (Streptococcus pyogenes) was 16 µg/mL (≈ 20.3 µM), the MIC (Moraxella catarrhalis; Moraxella catarrhalis - reduced fluoroquinolone susceptibility clinical isolate) was 8 µg/mL (≈ 10.2 µM) and the MIC (Moraxella catarrhalis; Moraxella catarrhalis - β-lactamase positive clinical isolate) was 4 µg/mL (≈ 5.08 µM). It also gave an MIC (Streptococcus pneumoniae; Streptococcus pneumoniae - multi-drug resistant clinical isolate) of 32 µg/mL (≈ 40.6 µM), an MIC (Streptococcus pneumoniae; Streptococcus pneumoniae - penicillin intermediate clinical isolate) of 32 µg/mL (≈ 40.6 µM) and an MIC (Streptococcus pneumoniae; Streptococcus pneumoniae - penicillin resistant clinical isolate) of 16 µg/mL (≈ 20.3 µM). For the same compound, the MIC (Streptococcus pneumoniae; Streptococcus pneumoniae - penicillin susceptible clinical isolate) was 32 µg/mL (≈ 40.6 µM).
